Experimental data from PubChem BioAssay AID1259420 (Broad Institute, 2018).
“And” between values parts separate entries of the source, which are not always exact repeats. Identical values can stand only once. Inconclusive results are not listed. The source made the active and inactive calls. No rule for the calls is given here.

test system: Toxoplasma gondii growth in host cells, no IFN-gamma; experiment: compound activity on host-cell Toxoplasma growth – dose response (AID 1259420);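 also: host cells were HeLa; final incubation lasted 72 hours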

Row | SMILES | AC50
1 | CN(C)C(=O)c1ccc(-c2ccc3c(c2)[C@@H]2[C@@H](CCN2C(=O)C2CCCC2)[C@@H](CO)N3C)cc1 | 17.5 µM
2 | O=C(c1ccc(F)cc1)N1CC(=O)N2[C@H](CO)[C@H](c3ccc(C#CCC4CCCC4)cc3)[C@@H]2C1 | 14.7 µM
3 | CC(=O)N(C)C1(c2ccccc2)CCN(CCC[C@]2(c3ccc(Cl)c(Cl)c3)CCCN(C(=O)c3ccccc3)C2)CC1 | 16.7 µM
4 | N#C[C@H]1[C@H](c2ccc(C#Cc3ccccc3F)cc2)[C@@H](CO)N1C(=O)c1cccnc1 | > 39 µM (inactive)
5 | CC(C)C#Cc1ccc([C@@H]2[C@H]3CN(C(=O)NC4CCCC4)CC(=O)N3[C@H]2CO)cc1 | > 39 µM (inactive)
6 | COc1cccc(-c2ccc([C@@H]3[C@H]4CN(C(=O)c5cccnc5)CC(=O)N4[C@H]3CO)cc2)c1 | > 39 µM (inactive)
7 | Cc1ccn(CCNc2nccc(-c3c(C)nn(C)c3C)n2)n1 | > 39 µM (inactive)
8 | Cc1ccc(S(=O)(=O)N2C[C@H](O)COC[C@@H]3O[C@H](CC(=O)NCc4ccc5c(c4)OCO5)CC[C@H]32)cc1 | > 39 µM (inactive)
9 | CCc1cnc(N2[C@H](C#N)[C@@H](c3ccc(-c4cccc(F)c4)cc3)[C@@H]2CO)s1 | > 39 µM (inactive)
10 | CCN(CC)C(=O)C1Cn2ccnc2C2(CCN(CC(C)C)CC2)O1 (stereo not drawn) | > 39 µM (inactive)
11 | O=C(CCCCCNc1nc(=S)[nH]c2ccccc12)N1CCC(O)(c2cccc(C(F)(F)F)c2)CC1 | > 39 µM (inactive)
12 | C[C@H](NC(=O)C[C@H]1CC[C@@H]2[C@@H](COc3ccc(NS(=O)(=O)c4ccc(Cl)cc4)cc3C(=O)N2C)O1)c1ccccc1 | 13.7 µM and 36.1 µM
13 | O=C1CNC[C@H]2[C@@H](c3ccc(Br)cc3)[C@H](CO)N12 | 35.9 µM
14 | COc1ccc(-c2nc3c(s2)CN(S(=O)(=O)c2cc(C)cc(C)c2)CC3)cc1 | 5.99 µM
15 | C[C@H](O[C@H]1OCCN(Cc2n[nH]c(=O)[nH]2)[C@H]1c1ccc(F)cc1)c1cc(C(F)(F)F)cc(C(F)(F)F)c1 | 21.5 µM
16 | OC[C@H]1O[C@@H](n2cnc3c(NC4CCCC4)nc(Cl)nc32)[C@H](O)[C@@H]1O | > 39 µM (inactive)
17 | Cc1ccccc1-c1ccc([C@H]2[C@@H](CO)N3CCCCN(S(=O)(=O)Cc4ccccc4)C[C@H]23)cc1 | 22.7 µM
18 | CN1c2ccc(C3=CCCCC3)cc2[C@@H]2[C@@H](CCN2C(=O)c2ccc3c(c2)OCO3)[C@@H]1CO | 27.5 µM
19 | COc1ccccc1NC(=O)N1C[C@@H]2N[C@H](C1)C2c1ccc(/C=C/c2ccccc2)cc1 (stereo partly drawn) | 6.68 µM
20 | O=C(c1ccc(F)cc1)N1CC(=O)N2[C@@H](CO)[C@H](c3ccc(C#CCC4CCCC4)cc3)[C@@H]2C1 | 18.6 µM and 22.6 µM
21 | CSCc1noc(CN2CCCC3(C2)CN(C)C(=O)O3)n1 (stereo not drawn) | > 39 µM (inactive)

Row | SMILES | AC50
22 | CC(C)C#Cc1ccc([C@H]2[C@@H](C#N)N(C(=O)c3cccc(F)c3)[C@@H]2CO)cc1 | 14.1 µM
23 | Cc1ccccc1CN1C[C@@H]2c3nc(N4CCCC(C)C4)ncc3CS(=O)(=O)[C@H]2C1 (stereo partly drawn) | 28.2 µM
24 | CCCC(Nc1nc(-c2cccnc2)nc2c1cnn2C)c1cccs1 (stereo not drawn) | > 39 µM (inactive)
25 | Cc1ccccc1S(=O)(=O)N1CC[C@@H]2[C@H]1c1cc(-c3cccc(F)c3)ccc1N(C)[C@H]2CO | 10.7 µM
26 | CCCNC(=O)N1[C@H](CO)[C@@H](c2ccc(-c3ccccc3F)cc2)[C@@H]1C#N | > 39 µM (inactive)
27 | CC(C)NC(=O)[C@H]1C[C@H]2CCN(CCOCc3ccccc3)C[C@@H]2O1 | > 39 µM (inactive)
28 | COc1cccc(NC(=O)N2CC(=O)N3[C@H](CO)[C@H](c4ccc(C#CCC5CCCC5)cc4)[C@H]3C2)c1 | 13.9 µM and 16.2 µM
29 | COc1ccccc1-c1ccc2c(c1)[C@H]1[C@H](CCN1C(=O)C1CCC1)[C@H](CO)N2 | 13 µM
30 | COc1ccc(C#Cc2ccc([C@@H]3[C@@H](CO)N4C(=O)CN(C(=O)NC(C)C)C[C@@H]34)cc2)cc1 | > 39 µM (inactive)
31 | COc1ccc(-c2ccc(C3[C@@H]4CN(C(=O)c5ccc(F)cc5)C[C@H]3N4)cc2)cc1 (stereo partly drawn) | 24.4 µM and 13.3 µM
32 | N#C[C@@H]1[C@@H](c2ccc(C#Cc3cccnc3)cc2)[C@@H](CO)N1C(=O)NC1CCCCC1 | > 39 µM (inactive)
33 | O=C(c1ccc(F)cc1)N1CC(=O)N2[C@H](C1)[C@H](c1ccc(C#CCC3CCCC3)cc1)[C@@H]2CO | 16.9 µM
34 | O=C(Nc1ccc2c(c1)OCO2)N1C[C@@H]2N[C@H](C1)C2c1ccc(C=Cc2ccccc2)cc1 (stereo partly drawn) | 11.6 µM and 8.75 µM
35 | N#C[C@@H]1[C@@H](c2ccc(C3=CCCCC3)cc2)[C@@H](CO)N1S(=O)(=O)c1ccccc1 | > 39 µM (inactive)
36 | CC(C)CNC(=O)c1nc2c(s1)CCN(C(=O)NCc1ccccc1)CC2 | 18.3 µM
37 | Cc1ccc(CNC2=NCCNC23CCN(S(=O)(=O)c2ccc4c(c2)CCCC4)CC3)cc1 | 23 µM
38 | c1csc(-c2cc(NC3CCNCC3)nc3[nH]ccc23)n1 | 37 µM
39 | O=C1c2c(O)ccc(O)c2C(=O)c2c(NCCNCCO)ccc(NCCNCCO)c21 | 0.209 µM
40 | CCCNC(=O)c1cc(-c2cnc(NCc3ccccc3)nc2)cn1C | 15.1 µM
41 | Cc1cccc(NC2COC3(CCN(C(=O)c4ccsc4)C3)C2)c1 (stereo not drawn) | 28.1 µM
42 | Cc1ccc(S(=O)(=O)N2CC[C@H]3[C@@H](CO)N(C)c4ccc(-c5ccccc5F)cc4[C@H]32)cc1 | > 20 µM (inactive)

Row | SMILES | AC50
43 | O=S(=O)(c1ccccc1)N(CC(F)(F)F)c1ccc(C(O)(C(F)(F)F)C(F)(F)F)cc1 | 14.2 µM
44 | CCOc1ccc(N(Cc2nc(-c3ccc(OC)cc3)oc2C)S(=O)(=O)c2ccccc2)cc1 | 7.28 µM
45 | CC(C)(O)CC(=O)NCCn1ccc2ncnc(Nc3ccc(Oc4cccc(C(F)(F)F)c4)c(Cl)c3)c21 | > 39 µM (inactive)
46 | C[C@H]1CN([C@@H](C)CO)C(=O)c2cccc(NS(=O)(=O)c3ccc(F)cc3)c2O[C@H]1CN(C)Cc1ccc(Cl)c(Cl)c1 | 17.6 µM
47 | CN1c2ccc(C#Cc3cccnc3)cc2[C@@H]2[C@@H](CCN2C(=O)c2cccc(F)c2)[C@@H]1CO | 30.3 µM
48 | O=C(Nc1ccc(Cl)cc1)N1[C@@H]2CNC[C@H]1C2c1ccc(-c2ccccc2)cc1 (stereo partly drawn) | 6.4 µM
49 | COCC(=O)N1CC(=O)N2[C@H](CO)[C@@H](c3ccc(C#CC4CC4)cc3)[C@@H]2C1 | > 39 µM (inactive)
50 | COc1cc([C@@H]2c3cc4c(cc3C(OC3OC5COC(C)OC5C(O)C3O)C3OCC(=O)[C@@H]32)OCO4)cc(OC)c1O (stereo partly drawn) | 13.7 µM
51 | N#Cc1cccc(-c2ccc3c(c2)[C@H]2[C@H](CCN2Cc2ccc4c(c2)OCO4)[C@@H](CO)N3)c1 | 15 µM
52 | O=S(=O)(c1cccc(F)c1)N1CC[C@@H]2[C@H]1c1cc(C#Cc3ccccc3F)ccc1N[C@@H]2CO | 17.3 µM
53 | CC(C)CC#Cc1ccc([C@@H]2[C@@H](CO)N3CCCCN(C(=O)Nc4ccccc4)C[C@@H]23)cc1 | 23.7 µM
54 | CC(C)NC(=O)N1CC[C@@H]2[C@H]1c1cc(-c3ccc(F)cc3)ccc1N(C)[C@@H]2CO | > 20 µM (inactive)
55 | COc1ccc(-c2ccc([C@@H]3[C@@H](CO)N4C(=O)CN(Cc5ccccc5)C[C@H]34)cc2)cc1 | > 39 µM (inactive)
56 | COc1ccc(S(=O)(=O)N2CCCCN3[C@H](CO)[C@H](c4ccc(C#CCC(C)C)cc4)[C@H]3C2)cc1 | 8.14 µM and 12.7 µM
57 | COc1ccccc1NC(=O)N1CCCCN2[C@H](CO)[C@H](c3ccc(-c4cccc(C#N)c4)cc3)[C@@H]2C1 | 33.7 µM
58 | Cc1sc2ncnc(NCC3CCN(c4cnn(C)c(=O)c4)C3)c2c1C (stereo not drawn) | 29.6 µM
59 | CCCNC(=O)N1C[C@@H]2N[C@H](C1)C2c1ccc(-c2ccc(OC)cc2)cc1 (stereo partly drawn) | 14.2 µM
60 | O=C(C[C@@H]1CC[C@H]2[C@@H](COC[C@@H](O)CN2Cc2cc(F)ccc2F)O1)NCc1ccc(Oc2ccccc2)cc1 | 16.9 µM
61 | COc1ccccc1CN1CC[C@@H]2[C@H]1c1cc(-c3cccc(C(=O)N(C)C)c3)ccc1N[C@@H]2CO | 20.2 µM
62 | CN1c2ccc(-c3ccccc3)cc2[C@@H]2[C@@H](CCN2C(=O)CC2CC2)[C@@H]1CO | 25.3 µM
63 | COc1ccc(C#Cc2ccc([C@@H]3[C@H]4CN(C(=O)NC(C)C)CC(=O)N4[C@H]3CO)cc2)cc1 | > 39 µM (inactive)

Row | SMILES | AC50
64 | COc1cccc(S(=O)(=O)N2CCCCN3[C@H](CO)[C@H](c4ccc(-c5ccccc5)cc4)[C@H]3C2)c1 | 13.1 µM
65 | CCc1cnc(N2[C@H](C#N)[C@@H](c3ccc(C#Cc4ccccc4F)cc3)[C@@H]2CO)s1 | 16.3 µM
66 | N#Cc1cccc(-c2ccc3c(c2)[C@@H]2[C@@H](CCN2S(=O)(=O)c2ccc(F)cc2)[C@H](CO)N3)c1 | 10.1 µM
67 | CN1c2ccc(-c3ccccc3)cc2[C@H]2[C@H](CCN2C(=O)CC2CC2)[C@@H]1CO | 25.4 µM
68 | C/C=C/c1ccc(C2[C@H]3CNC[C@@H]2N3Cc2cc(F)ccc2F)cc1 (stereo partly drawn) | 11.4 µM
69 | COc1cccc(NC(=O)N2CC(=O)N3[C@H](C2)[C@H](c2ccc(C#CCC4CCCC4)cc2)[C@@H]3CO)c1 | 16.9 µM
70 | CCCNC(=O)N1[C@H](C#N)[C@@H](c2ccc(-c3ccccc3F)cc2)[C@H]1CO | 31.9 µM
71 | COc1ccc(NC(=O)N2CC[C@@H]3[C@H]2c2cc(C4=CCCCC4)ccc2N(C)[C@H]3CO)cc1 | 17.8 µM
72 | CN(C)C(=O)COC[C@@H]1CC[C@H]2[C@H](CCN2CC2CC2)O1 | > 39 µM (inactive)
73 | N#Cc1ccc(-c2ccc(C3[C@@H]4CN(C(=O)C5CCCCC5)C[C@H]3N4)cc2)cc1 (stereo partly drawn) | 16.7 µM
74 | Nc1ncnc2c1ncn2[C@@H]1O[C@H](C[C@@H](N)CC[C@H](N)C(=O)O)[C@@H](O)[C@H]1O | 1.38 µM
75 | COc1ccccc1NC(=O)N1CC(=O)N2[C@H](CO)[C@H](c3ccc(C#CC(C)C)cc3)[C@H]2C1 | > 39 µM (inactive)
76 | Cc1ccc(S(=O)(=O)N2CC[C@@H]3[C@@H](CO)Nc4ccc(-c5cccc(C(=O)N(C)C)c5)cc4[C@@H]32)cc1 | 13.8 µM
77 | Cc1ccc(N2CCC3(CC2)CN(CC#N)Cc2ccccc23)nn1 | > 39 µM (inactive)
78 | C[C@H]1CN([C@@H](C)CO)C(=O)c2cccc(NC(=O)c3ccc(-c4nccs4)cc3)c2O[C@@H]1CN(C)C(=O)Nc1ccc(C(F)(F)F)cc1 | > 42 µM (inactive)
79 | CC(C)(C)CC(C)(C)c1ccc(OCCOCC[N+](C)(C)Cc2ccccc2)cc1 | 14.1 µM
80 | O=C(Cc1ccccc1)N1CCC2(CC1)CC(N1CCCC1)CO2 (stereo not drawn) | > 39 µM (inactive)
81 | N#Cc1ccc(-c2ccc([C@H]3[C@@H](CO)N4C(=O)CNC[C@@H]34)cc2)cc1 | > 39 µM (inactive)
82 | CCc1cc(C(=O)Nc2ccc(C)cc2-c2cc(C)[nH]n2)c2c(C)noc2n1 | 18.2 µM
83 | C=CCNc1nnc(Cl)c2ccccc12 | 17.8 µM
